Results: patent US8680094B2, “1, 4-benzoxazine compounds and derivatives thereof as therapeutic drugs for the treatment of neurodegenerative conditions” (Board of Regents, The University of Texas System, priority 2008, dated 2014)

Experiments:
[1] = target: T1, c-Raf (Homo sapiens, UniProt P04049); test: In vitro kinase activity; type: biochemical; settings: percentage of control assays without compound, mean of duplicate
T1 construct: in some cases SignalChem; host or cells: Sf9 insect cells (baculovirus)
Protocol: (§1) To better understand the mechanism of action of the compounds of the present invention, but in no way a limitation; the effects of HSB-13 and ASK-2a on 20 different kinases were examined in vitro. At 500 nM concentration, ASK-2a inhibited the kinase activities of GSK3α, GSK3β, p38α, p38β, JNK3, MLK3, and B-Raf substantially. […] As described above, ASK-2a protects cerebellar granule neurons against LK-induced death but is ineffective against HCA-induced toxicity of HT-22 cells. In contrast, HSB-13 is protective in both paradigms. […] Previous studies have established that CDK inhibitors can protect neurons against a number of different apoptotic stimuli.
(§2) The activity of each kinase was measured in vitro in the presence either 100 nM or 500 nM ASK-2a. Kinase activity is expressed as a percentage of that in control assays (without ASK-2a). The values are mean of assays performed in duplicate. Substantial inhibition of kinase activity (>20%) is in bold type.
(§3) Table 3: Effect of HSB-13 at 500 nM on 20 different kinases measured in vitro. Kinase activity is expressed as a percentage of that in control assays (without HSB-13). The values are mean of assays performed in duplicate. Substantial inhibition of kinase activity (>20%) is in bold type.
(§4) Effect of chemical compounds c-Raf and B-Raf purified from insect cells. In vitro kinase assays were performed using purified kinase (expressed by baculovirus in Sf9 insect cells) and synthetic substrates under standard conditions using the Kinase Profiling service of Upstate Biotechnology. Briefly, for each assay 5-10 mU of purified kinase is incubated with the chemical compound (0.1-1 uM concentration) in a buffer containing 8 mM MOPS, pH 7.2, 0.2 mM EDTA, 10 mM Mg Acetate and [γ-^33P-ATP] for 40 min at room temperature. MBP is used as substrate. Kinase activity is quantified by measuring ^33P incorporation by spotting an aliquot on P30 filters, washing in 50 mM phosphoric acid and scintillation counting.
(§5) In some cases, effects on c-Raf and B-Raf are assayed by SignalChem as follows. Protein kinase assays (in duplicate or triplicate) were performed at ambient temperature for 20-40 minutes in a final volume of 25 μl. The assay was initiated by the addition of ^33P-ATP and the reaction mixture incubated at ambient temperature for 20-40 minutes, depending on the protein kinase target. After the incubation period, the assay was terminated by spotting 10 μl of the reaction mixture onto Multiscreen phosphocellulose P81 plate. The Multiscreen phosphocellulose P81 plate was washed 3 times for approximately 15 minutes each in a 1% phosphoric acid solution.
(§6) The radioactivity on the P81 plate was counted in the presence of scintillation fluid in a Trilux scintillation counter. Blank control is included all the assay components except the addition of the appropriate substrate (replace with equal volume of assay dilution buffer), was set up for each protein kinase target. The corrected activity for each protein kinase target was determined by removing the blank control value.

[2] = target: T2, B-Raf (Homo sapiens, UniProt P15056); test: In vitro kinase activity; type: biochemical; settings: percentage of control assays without compound, mean of duplicate
T2 construct: in some cases SignalChem; host or cells: Sf9 insect cells (baculovirus)
Protocol: as §1, §2, §3, §4, §5, §6

[3] = test system: primary cortical neurons; test: HCA-induced neurotoxicity in primary cortical neurons; type: cell-based, rat
[4] = test system: primary cortical neurons; test: Aβ-induced death of primary cortical neurons; type: cell-based, rat; settings: 5 uM aged Aβ25-35; viability 24 hours later
Protocol: Primary cultures of cortical neurons were cultured from embryonic day 18 rats. The cultures were treated 1-2 days later with 5 uM of aged Aβ peptide (Aβ25-35; purchased from Sigma-Aldrich). Neuronal viability was assayed 24 hours later.

[5] = test system: 3-NP-induced mouse model of Huntington's disease; test: 3-nitropropionic acid (3-NP)-induced mouse model of Huntington's disease; type: in vivo
Protocol: 3-Nitropropionic acid administration and behavioral evaluation was done on 8-week old C57BL/6 male mice (Charles River Laboratories, Inc, Wilmington, Mass.) administered with 3-NP in ten intraperitoneal injections (50 mg/kg twice a day for 5 days) with or without HSB-13 (2 mg/kg). Injections of HSB-13 were performed 30 min before 3-NP administration. Control animals received saline injections. On the day following the 5 days of injection, locomotor activity was assessed using The TRU-SCAN® activity monitoring system (Coulborn Instruments, PA) as previously described (Chin et al., 2004; Chen et al., 2008b). The following behavioral parameters were selected: (1) Total movements time, (2) Total movement distance: the sum of all vectored X-Y coordinate changes in the floor plane, (3)Average distance per movement, (4) Mean velocity: the mean velocity of all X-T coordinate change defined movements. Following behavioral evaluation, the mice were deeply anesthetized and brains removed. The brains were fixed in 4% paraformaldehyde in 0.1 M phosphate buffer and cryoprotected in 20% sucrose in 0.1 M phosphate buffer. Coronal sections were cut on a cryostat at 40 microns and stained with cresyl violet (Sigma-Aldrich) as previously described (Chin et al., 2004; Chen et al., 2008b).
3-Nitropropionic acid administration and behavioral evaluation. 8-week old C57BL/6 male mice (Charles River Laboratories, Inc, Wilmington, Mass.) were administered with 3-NP in ten intraperitoneal injections (50 mg/kg twice a day for 5 days) with or without HSB-13 […]). Injections of HSB-13 were performed ˜30 min before 3-NP administration. Control animals received saline injections. On the day following the 5 days of injection, locomotor activity was assessed using THE TRU-SCAN® activity monitoring system (Coulborn Instruments, PA) as previously described (Chin et al. 2004). The following behavioral parameters were selected: (i) Total movements episodes: each movement in the floor plane is a series of coordinate changes with no rest for at least 1 sample interval, (2) Total movement distance: the sum of all vectored X-Y coordinate changes in the floor plane, and (3) Mean velocity: the mean velocity of all X-T coordinate change defined movements. Following behavioral evaluation, the mice were deeply anesthetized and brains removed. The brains were fixed in 4% paraformaldehyde in 0.1 M phosphate buffer and cryoprotected in 20% sucrose in 0.1 M phosphate buffer. Coronal sections were cut on a cryostat at 50 microns and stained with cresyl violet (Sigma).

T2 sequence (P15056 whole entry): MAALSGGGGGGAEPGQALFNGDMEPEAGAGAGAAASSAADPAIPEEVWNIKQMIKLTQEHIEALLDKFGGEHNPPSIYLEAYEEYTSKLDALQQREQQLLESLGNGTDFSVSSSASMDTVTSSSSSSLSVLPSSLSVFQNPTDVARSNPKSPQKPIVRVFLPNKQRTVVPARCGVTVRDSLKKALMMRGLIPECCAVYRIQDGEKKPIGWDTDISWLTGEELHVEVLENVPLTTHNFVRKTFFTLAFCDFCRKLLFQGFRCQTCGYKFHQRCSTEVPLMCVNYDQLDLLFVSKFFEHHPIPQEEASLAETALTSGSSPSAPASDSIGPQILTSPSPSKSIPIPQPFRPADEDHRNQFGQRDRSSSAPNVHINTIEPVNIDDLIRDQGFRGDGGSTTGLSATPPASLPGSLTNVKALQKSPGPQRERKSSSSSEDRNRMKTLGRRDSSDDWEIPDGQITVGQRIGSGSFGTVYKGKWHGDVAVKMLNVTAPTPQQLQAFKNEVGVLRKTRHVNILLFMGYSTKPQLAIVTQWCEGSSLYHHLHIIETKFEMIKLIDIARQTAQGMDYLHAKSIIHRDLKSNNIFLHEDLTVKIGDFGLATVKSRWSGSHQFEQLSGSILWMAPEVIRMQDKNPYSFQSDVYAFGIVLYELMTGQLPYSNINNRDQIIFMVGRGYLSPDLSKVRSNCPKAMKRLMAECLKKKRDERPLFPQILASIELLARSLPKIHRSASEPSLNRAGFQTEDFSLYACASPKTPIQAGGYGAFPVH
T1 sequence (P04049 whole entry): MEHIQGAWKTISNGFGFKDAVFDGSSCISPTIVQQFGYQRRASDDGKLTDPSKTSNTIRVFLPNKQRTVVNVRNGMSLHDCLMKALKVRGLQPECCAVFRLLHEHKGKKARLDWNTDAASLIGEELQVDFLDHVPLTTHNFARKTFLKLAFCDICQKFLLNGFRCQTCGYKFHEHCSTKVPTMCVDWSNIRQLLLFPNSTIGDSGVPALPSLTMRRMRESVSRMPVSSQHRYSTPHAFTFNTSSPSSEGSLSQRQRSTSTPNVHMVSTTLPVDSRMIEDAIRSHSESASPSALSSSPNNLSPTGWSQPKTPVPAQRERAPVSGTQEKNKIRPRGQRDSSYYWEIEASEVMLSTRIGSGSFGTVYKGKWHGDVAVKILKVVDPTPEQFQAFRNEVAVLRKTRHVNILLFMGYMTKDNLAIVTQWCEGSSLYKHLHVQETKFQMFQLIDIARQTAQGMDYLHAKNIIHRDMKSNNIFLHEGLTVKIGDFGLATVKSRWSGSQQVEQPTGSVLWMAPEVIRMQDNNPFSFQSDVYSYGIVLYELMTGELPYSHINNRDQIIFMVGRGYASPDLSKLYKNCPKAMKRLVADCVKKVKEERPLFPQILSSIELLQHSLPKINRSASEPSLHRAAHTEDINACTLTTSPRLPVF

| SMILES | % ACTIVITY ([1]; 100 nM) [%] | % ACTIVITY ([1]; 500 nM) [%] | % ACTIVITY ([2]; 100 nM, 0.1 µM) [%] | % ACTIVITY ([2]; 100 nM, listed as ASK2a, 0.1 µM) | protection against HCA-induced neurotoxicity [3] | % ACTIVITY ([2]; 500 nM) [%] | protection against Aβ toxicity [4] | 3-NP-induced striatal degeneration (cresyl violet histology) ([5]; HSB-13 2 mg/kg body weight, 30 min before each 3-NP injection (50 mg/kg i.p. twice a day, 5 days), FIG. 7A) | locomotor performance: total movement time, total movement distance, average distance per movement, mean velocity ([5]; HSB-13 2 mg/kg, versus 3-NP alone, 15 min period, FIG. 7B) | 3-NP-induced striatal degeneration (cresyl violet histology) ([5]; HSB-13 2.5 mg/kg body weight, FIG. 10A) | locomotor performance: total movement episodes, total movement distance, mean velocity ([5]; HSB-13 2.5 mg/kg, versus 3-NP alone, FIG. 10B) |
| --- | --- | --- | --- | --- | --- | --- | --- | --- | --- | --- | --- |
| O=C1Nc2ccccc2OC1=Cc1cc(Br)c(O)c(Br)c1 [ASK-2a] | 92 | 88 | 79 | inhibited efficiently | – | – | – | – | – | – | – |
| Nc1ccc2c(c1)NC(=O)/C(=C/c1cc(Br)c(O)c(Br)c1)O2 [HSB-13, (Z)-6-amino-2-(3,′5′-dibromo-4′-hydrozybenzylidene)-2H-benzo[b][1,4]oxazin-3(4H)-one] | 97 | – | – | – | protects | 43 | protects | substantially reduced | markedly higher | substantially reduced | markedly higher |
